According to patent publication US20220031684A1, “PROPHYLACTIC EFFICACY OF SEROTONIN 4 RECEPTOR AGONISTS AGAINST STRESS” (THE TRUSTEES OF COLUMBIA UNIVERSITY IN THE CITY OF NEW YORK, priority 2019, published 2022):

Columns and labels:
C57BL/6NTac mice = experiment: Elevated plus maze (EPM) in CORT model; format: in vivo; conditions: male C57BL/6NTac; Flx 18 mg/kg/day or RS-67,333 1.5 mg/kg/day for 3 weeks prior to CORT
Method: This chronic CORT elevation dysregulates the hypothalamic-pituitary-adrenal axis (HPA) in a manner similar to that observed in clinical depression. The dose and duration of CORT treatment was selected based on previous studies. CORT (35 μg/ml, equivalent to about 5 mg/kg/day) dissolved in 0.45% hydroxypropyl-o-cyclodextrin (0-CD) or vehicle (VEH) (0.45% j-CD) was available ad libitum in the drinking water in opaque bottles to protect it from light. VEH- and CORT-treated water was changed every 3 days to prevent possible degradation. Contextual Fear Conditioning (CFC): A 3-shock CFC procedure was administered as previously published. Briefly, mice were placed into context A and administered 3 2-s shocks (0.75 mA) at 180 s, 240 s or 300 s following placement into context A. Mice were removed from the context 15 s following the termination of shock (at 317 s). For context retrieval, mice were placed back into context A for 300 s. Electrophysiology: Electrophysiology was conducted as previously described. Statistical Analysis: Results from data analyses are expressed as means±SEM. Alpha was set to 0.05 for all analyses. Data were analyzed using GraphPad Prism v7.0 or v8.0. For all experiments, unless otherwise noted, one- or two-way ANOVAs with repeated-measures were applied to the data as appropriate. Significant main effects and/or interactions were followed by Fisher's PLSD post hoc analysis or unpaired t-tests. Drugs: All drugs were prepared in physiological saline and all injections were administered intraperitoneally (i.p.) in volumes of 0.1 cc per […] body weight unless otherwise noted. Fluoxetine hydrochloride (Flx): Flx (BioTrend Chemicals AG, BG197, Zurich, Germany) was administered in the drinking water (18 mg/kg/day) for 3 weeks before the start of CORT. […] (R,S)-ketamine (K): (R,S)-ketamine (Ketaset III, Ketamine HCl injection, Fort Dodge Animal Health, Fort Dodge, Iowa) was administered in a single dose at 30 mg/kg of body weight 1 week before the start of CFC. […] PF-04995274: PF-04995274 (Sigma, Catalog No. 1331782-27-4, St. Louis, Mo.) was administered a single dose at 3 or 10 mg/kg of body weight 1 week before the start of CFC. PF-04995274 was dissolved in saline using an ultrasonic homogenizer (BioLogics, Model 3000, Manassas, Va.). Osmotic minipump implantation: ALZET osmotic minipumps (Model 2004, […], 28 days) were implanted subcutaneously under isoflurane anesthesia as previously described [S2]. Osmotic minipumps were rotated under the skin two to three times per week. Behavioral Assays: All experiments were approved by the Institutional Animal Care and Use Committee (IACUC) at the New York Psychiatric Institute (NYSPI). […] Videos were scored using ANY-maze behavior tracking software (Stoelting, Wood Dale, Ill.). […]

sigma 1 = sigma 1 (Homo sapiens, UniProt Q99720); conditions: cited from earlier work
129S6/SvEv mice [1] = experiment: Novelty-suppressed feeding (NSF) after CFC; format: in vivo
Method: (§1) This chronic CORT elevation dysregulates the hypothalamic-pituitary-adrenal axis (HPA) in a manner similar to that observed in clinical depression. The dose and duration of CORT treatment was selected based on previous studies. CORT (35 μg/ml, equivalent to about 5 mg/kg/day) dissolved in 0.45% hydroxypropyl-o-cyclodextrin (0-CD) or vehicle (VEH) (0.45% j-CD) was available ad libitum in the drinking water in opaque bottles to protect it from light. VEH- and CORT-treated water was changed every 3 days to prevent possible degradation. Contextual Fear Conditioning (CFC): A 3-shock CFC procedure was administered as previously published. Briefly, mice were placed into context A and administered 3 2-s shocks (0.75 mA) at 180 s, 240 s or 300 s following placement into context A. Mice were removed from the context 15 s following the termination of shock (at 317 s). For context retrieval, mice were placed back into context A for 300 s. Electrophysiology: Electrophysiology was conducted as previously described. Statistical Analysis: Results from data analyses are expressed as means±SEM. Alpha was set to 0.05 for all analyses. Data were analyzed using GraphPad Prism v7.0 or v8.0. For all experiments, unless otherwise noted, one- or two-way ANOVAs with repeated-measures were applied to the data as appropriate. Significant main effects and/or interactions were followed by Fisher's PLSD post hoc analysis or unpaired t-tests. Drugs: All drugs were prepared in physiological saline and all injections were administered intraperitoneally (i.p.) in volumes of 0.1 cc per […] body weight unless otherwise noted. Fluoxetine hydrochloride (Flx): Flx (BioTrend Chemicals AG, BG197, Zurich, Germany) was administered in the drinking water (18 mg/kg/day) for 3 weeks before the start of CORT. […] (R,S)-ketamine (K): (R,S)-ketamine (Ketaset III, Ketamine HCl injection, Fort Dodge Animal Health, Fort Dodge, Iowa) was administered in a single dose at 30 mg/kg of body weight 1 week before the start of CFC. […] PF-04995274: PF-04995274 (Sigma, Catalog No. 1331782-27-4, St. Louis, Mo.) was administered a single dose at 3 or 10 mg/kg of body weight 1 week before the start of CFC. PF-04995274 was dissolved in saline using an ultrasonic homogenizer (BioLogics, Model 3000, Manassas, Va.). Osmotic minipump implantation: ALZET osmotic minipumps (Model 2004, […], 28 days) were implanted subcutaneously under isoflurane anesthesia as previously described [S2]. Osmotic minipumps were rotated under the skin two to three times per week. Behavioral Assays: All experiments were approved by the Institutional Animal Care and Use Committee (IACUC) at the New York Psychiatric Institute (NYSPI). Elevated Plus Maze (EPM): Testing was performed as previously described [S3]. Briefly, the maze is a plus-cross-shaped apparatus consisting of four arms, two open and two enclosed by walls, linked by a central platform at a height of 50 cm from the floor. Mice were individually placed in the center of the maze facing an open arm and were allowed to explore the maze for 5 min. The time spent in and the number of entries into the open arms was used as an anxiety index. Videos were scored using ANY-maze behavior tracking software (Stoelting, Wood Dale, Ill.). Novelty-Suppressed Feeding: The NSF is a conflict test that elicits competing motivations: the drive to eat and the fear of venturing into the center of a brightly lit arena. The latency to feed is used as an index of anxiety-like behavior, because classical anxiolytic drugs decrease this measure. The NSF test was carried out during an 8 min period as previously described [S3]. Briefly, the testing apparatus consisted of a plastic box (50×50×20 cm), the floor of which was covered with approximately 2 cm of bedding. For 129S6/SvEv experiments, mice were food restricted for 12 h. For the C57BL/6N experiments, mice were food restricted for 24 h. […]

129S6/SvEv mice [2] = experiment: Elevated plus maze (EPM) after CFC; format: in vivo
Method: as §1

[3] = Chronic corticosterone (CORT) model: body weight; format: in vivo, mice; conditions: male C57BL/6NTac; Flx 18 mg/kg/day in drinking water or RS-67,333 1.5 mg/kg/day in osmotic minipumps for 3 weeks prior to CORT
Method: This chronic CORT elevation dysregulates the hypothalamic-pituitary-adrenal axis (HPA) in a manner similar to that observed in clinical depression. The dose and duration of CORT treatment was selected based on previous studies. CORT (35 μg/ml, equivalent to about 5 mg/kg/day) dissolved in 0.45% hydroxypropyl-o-cyclodextrin (0-CD) or vehicle (VEH) (0.45% j-CD) was available ad libitum in the drinking water in opaque bottles to protect it from light. VEH- and CORT-treated water was changed every 3 days to prevent possible degradation. Contextual Fear Conditioning (CFC): A 3-shock CFC procedure was administered as previously published. Briefly, mice were placed into context A and administered 3 2-s shocks (0.75 mA) at 180 s, 240 s or 300 s following placement into context A. Mice were removed from the context 15 s following the termination of shock (at 317 s). For context retrieval, mice were placed back into context A for 300 s. Electrophysiology: Electrophysiology was conducted as previously described. Statistical Analysis: Results from data analyses are expressed as means±SEM. Alpha was set to 0.05 for all analyses. Data were analyzed using GraphPad Prism v7.0 or v8.0. For all experiments, unless otherwise noted, one- or two-way ANOVAs with repeated-measures were applied to the data as appropriate. […] Videos were scored using ANY-maze behavior tracking software (Stoelting, Wood Dale, Ill.). […]

129S6/SvEv mice [4] = experiment: Forced swim test (FST) after CFC; format: in vivo
Method: as §1

[5] = FIG. 3 cohort, FIG. 3M, Fisher's PLSD
[6] = female 129S6/SvEv, 1.5 or 10 mg/kg
[7] = FIG. 3 cohort, FIG. 3G, Fisher's PLSD

Sequence of sigma 1 (Q99720 whole entry): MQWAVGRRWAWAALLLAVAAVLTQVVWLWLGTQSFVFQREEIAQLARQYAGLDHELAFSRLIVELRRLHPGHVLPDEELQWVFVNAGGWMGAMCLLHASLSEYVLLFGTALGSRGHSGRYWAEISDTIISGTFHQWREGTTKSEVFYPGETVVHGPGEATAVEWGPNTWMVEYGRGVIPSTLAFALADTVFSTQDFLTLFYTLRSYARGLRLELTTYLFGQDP

CCCCN1CCC(CCC(=O)c2cc(Cl)c(N)cc2OC)CC1.Cl [RS-67,333, 1-(4-amino-5-chloro-2-methoxyphenyl)-3-[1(n-butyl)-4-piperidinyl]-1-propanone HCl]
entries into the open arms of the EPM vs CORT+Veh (C57BL/6NTac mice): significantly more entries
time spent in the open arms of the EPM vs VEH+Veh (C57BL/6NTac mice): did not alter
pKi sigma 1 (sigma 1): 8.9
p, NSF Latency of feed, Saline vs. RS67333 (10 mg/kg) (129S6/SvEv mice [1]; FIG. 2M, t-test): 0.0108
p, NSF Food Eaten (g), Saline vs. RS67333 (10 mg/kg) (129S6/SvEv mice [1]; FIG. 2N, t-test): 0.3871
p, NSF Body Weight, Saline vs. RS67333 (10 mg/kg) (129S6/SvEv mice [1]; FIG. 2O, t-test): 0.8829
p, NSF Latency to feed (sec), RS67333 (1.5 mg/kg) vs. RS67333 (10 mg/kg) (129S6/SvEv mice [1]; [5]): 0.0820
p, NSF Latency to feed (sec), Saline vs. RS67333 (10 mg/kg) (129S6/SvEv mice [1]; [5]): 0.0010
significance (* column), NSF Latency to feed (sec), Saline vs. RS67333 (1.5 mg/kg) (129S6/SvEv mice [1]; FIG. 3 cohort, FIG. 3M, Fisher's PLSD, p cell empty): ns
latency to feed (NSF) (129S6/SvEv mice [1]; female 129S6/SvEv, 10 mg/kg): significantly reduced latency to feed
latency to approach the pellet (NSF) vs saline (129S6/SvEv mice [1]; male 129S6/SvEv, 10 mg/kg): significantly reduced latency
p, EPM Time in Open, Saline vs. RS67333 (10 mg/kg) (129S6/SvEv mice [2]; FIG. 2J, t-test): 0.2069
p, EPM Entries into Open, Saline vs. RS67333 (10 mg/kg) (129S6/SvEv mice [2]; FIG. 2K, t-test): 0.3584
entries into the open arms of the EPM (129S6/SvEv mice [2]; [6]): comparable
time spent in the open arms of the EPM (129S6/SvEv mice [2]; [6]): comparable
entries into the open arms of the EPM vs saline (129S6/SvEv mice [2]; male 129S6/SvEv, 10 mg/kg): neither in the open arms nor entries into the open arms of the maze was significantly different
time in the open arms of the EPM vs saline (129S6/SvEv mice [2]; male 129S6/SvEv, 10 mg/kg): neither in the open arms nor entries into the open arms of the maze was significantly different
CORT-induced increase in body weight [3]: attenuated
p, FST Day 1 Immobility Time (sec), RS67333 (1.5 mg/kg) vs. RS67333 (10 mg/kg) (129S6/SvEv mice [4]; FIG. 2E, Fisher's LSD): 0.3430
p, FST Day 1 Immobility Time (sec), RS67333 (1.5 mg/kg) vs. RS67333 (30 mg/kg) (129S6/SvEv mice [4]; FIG. 2E, Fisher's LSD): 0.5994
p, FST Day 1 Immobility Time (sec), RS67333 (10 mg/kg) vs. RS67333 (30 mg/kg) (129S6/SvEv mice [4]; FIG. 2E, Fisher's LSD): 0.1099
p, FST Day 1 Immobility Time (sec), Saline vs. RS67333 (1.5 mg/kg) (129S6/SvEv mice [4]; FIG. 2E, Fisher's LSD): 0.3784
p, FST Day 1 Immobility Time (sec), Saline vs. RS67333 (10 mg/kg) (129S6/SvEv mice [4]; FIG. 2E, Fisher's LSD): 0.0028
p, FST Day 1 Immobility Time (sec), Saline vs. RS67333 (30 mg/kg) (129S6/SvEv mice [4]; FIG. 2E, Fisher's LSD): 0.8437
p, FST Day 2 Immobility Time (min 3-6) (sec), RS67333 (1.5 mg/kg) vs. RS67333 (10 mg/kg) (129S6/SvEv mice [4]; [7]): 0.0235
p, FST Day 2 Immobility Time (min 3-6) (sec), Saline vs. RS67333 (1.5 mg/kg) (129S6/SvEv mice [4]; [7]): 0.4916
p, FST Day 2 Immobility Time (min 3-6) (sec), Saline vs. RS67333 (10 mg/kg) (129S6/SvEv mice [4]; [7]): 0.1991
immobility, FST days 1 and 2 (129S6/SvEv mice [4]; female 129S6/SvEv, 1.5 or 10 mg/kg vs saline): comparable levels of immobility
immobility time, FST Day 2 (129S6/SvEv mice [4]; male 129S6/SvEv, RS-67,333 1.5, 10 or 30 mg/kg vs saline): comparable
immobility, FST Day 1 vs saline (129S6/SvEv mice [4]; male 129S6/SvEv, single injection 1 week before CFC, 10 mg/kg): significantly less immobile
